Results on 41 compounds are retold here after patent publication US8344181B2, “N-2 adamantanyl-2-phenoxy-acetamide derivatives as 11-beta hydroxysteroid dehydrogenase inhibitors” (Janssen Pharmaceutica N.V., priority 2004, dated 2013).

Assay [1] deals with T1, 11β-HSD2 (Homo sapiens, UniProt P80365).
T1 construct: endogenous in cells; host or cells: HepG2 (ATCC HB-8065)
T1 sequence (P80365 1-405): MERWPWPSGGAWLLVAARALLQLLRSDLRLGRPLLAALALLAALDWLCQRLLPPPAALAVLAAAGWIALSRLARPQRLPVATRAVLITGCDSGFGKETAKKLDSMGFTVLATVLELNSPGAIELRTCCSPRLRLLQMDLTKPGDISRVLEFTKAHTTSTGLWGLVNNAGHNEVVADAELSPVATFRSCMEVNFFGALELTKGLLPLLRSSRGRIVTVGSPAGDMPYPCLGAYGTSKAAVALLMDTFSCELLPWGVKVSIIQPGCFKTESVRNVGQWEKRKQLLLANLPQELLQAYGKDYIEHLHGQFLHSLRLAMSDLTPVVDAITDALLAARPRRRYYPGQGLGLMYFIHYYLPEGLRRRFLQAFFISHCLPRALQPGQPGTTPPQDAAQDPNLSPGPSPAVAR
Put plainly: Cellular assay of 11β-HSD2 activity in HepG2 cells. Type of assay: cell-based. As to conditions: 4 hour pre-incubation, 10^-5M to 10^-10M, read-out: HSD2 cellular HepG2 Score. Here is the method:
The effects on 11β-HSD2 activity was studied in HepG2 and LCC-PK1-cells HepG2-cells (ATCC HB-8065) were seeded in 12 well plates at a density of 100,000 cells/ml and grown at 37° C. in a humidified 5% CO2 atmosphere in MEM-Rega-3 medium supplemented with 10% heat inactivated foetal calf serum, 2 mM L-glutamine and sodium bicarbonate). Medium was refreshed twice a week.
Following a 4 hour pre-incubation with test compound, 0.5 μCi ^3H-cortisol or corticosterone, was added to the cultures. One hour later, the medium was extracted on Extrelut^3-columns with 15 ml diethyl ether and the extract was analysed by HPLC as described above.
(§1) As for the enzymatic assays, the compounds to be tested were taken from a stock solution and tested at a final concentration ranging from 10^−5M to 10^−10M. From the thus obtained dose response curves, the pIC50 value was calculated and scored as follows; Score 1=pIC50 value<5, Score 2=pIC50 value in the range of 5 to 6, Score 3=pIC50 value>6. (in this table NT stands for Not Tested).

Assay [2] deals with T2, 11β-HSD1 (Mus musculus, UniProt P50172).
T2 construct: endogenous in cells; host or cells: 3T3-L1 (ATCC-CL-173), differentiated into adipocytes
T2 sequence (P50172 whole entry): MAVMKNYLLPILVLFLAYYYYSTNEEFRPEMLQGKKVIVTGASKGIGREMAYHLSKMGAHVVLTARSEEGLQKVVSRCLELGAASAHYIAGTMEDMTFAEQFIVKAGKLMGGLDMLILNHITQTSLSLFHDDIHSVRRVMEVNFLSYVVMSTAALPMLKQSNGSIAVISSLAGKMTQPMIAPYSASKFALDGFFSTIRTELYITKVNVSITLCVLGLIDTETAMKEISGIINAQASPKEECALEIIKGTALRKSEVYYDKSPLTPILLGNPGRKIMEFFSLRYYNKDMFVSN
The assay can be described thus: Cellular assay of 11β-HSD1 activity in differentiated 3T3-L1 cells. The format is cell-based. As to conditions: 4 hour pre-incubation, 10^-5M to 10^-10M, read-out: HSD1 cellular 3T3-L1 Score. Here is the method: The effects on 11β-HSD1 activity was measured in differentiated 3T3-L1 cells and rat hepatocytes.
Mouse fibroblast 3T3-L1 cells (ATCC-CL-173) were seeded at a density of 16500 cells/ml in 12 well plates and grown for 7 days in DMEM medium (supplemented with 10% heat inactivated foetal calf serum, 2 mM glutamine and 25 mg gentamycin) at 37° C. in a humidified 5% CO2 atmosphere. Medium was refreshed twice a week. Fibroblasts were differentiated into adipocytes at 37° C. in a 5% CO2 humidified atmosphere in growth medium containing 2 μg/ml insulin, 55 μg/ml IBMX and 39.2 μg/ml dexamethasone.
Primary hepatocytes from male rats were seeded on normal Falcon 12 well plates at a density of 250000 cells/well and incubated for 16 hours at 37° C. in a 5% CO2 humidified atmosphere in DMEM-HAM's F12 medium containing 5% Nu-serum, 100 U/ml penicillin, 100 μg/ml streptomycin, 0.25 μg/ml amphotericin B, 50 μg/ml gentamycin sulfate, 5 μg/ml insulin and 392 ng/ml dexamethasone. Following a 4 hour pre-incubation with test compound, 0.5 μCi ^3H-cortisone or dehydrocorticosterone, was added to the 3T3-L1 cultures. One hour later, the medium was extracted on Extrelut^3-columns with 15 ml diethyl ether and the extract was analysed by HPLC as described above. The effects of JNJ-compounds on rat hepatocyte HSD1 activity was measured after an incubation period of 90 minutes with 0.5 μCi^3H-dehydrocorticosterone. Corticosterone formation was analysed by HPLC.
as §1

Turning to `Cc1cc(Cl)ccc1OC(C)(C)C(=O)N[C@H]1[C@@H]2CC3C[C@H]1C[C@](O)(C3)C2` [Compound 1], the IC50 in assay [1] and in assay [2] was below 1000 nM each time.

As for `Cc1cc(C)cc(OC(C)(C)C(=O)NC2C3CC4CC(C3)CC2C4)c1` (stereo not shown) [Compound 2], the IC50 in assay [1] was above 10000 nM; in assay [2] it was below 1000 nM.

`CC(C)(C(=O)N[C@H]1[C@@H]2CC3C[C@H]1C[C@](O)(C3)C2)S(=O)(=O)c1ccc(Cl)cc1` [Compound 3]: the IC50 in assay [1] and in assay [2] was below 1000 nM in each case.

Regarding `CC(C)(Sc1ccc(Cl)cc1)C(=O)N[C@H]1[C@@H]2CC3C[C@H]1C[C@](O)(C3)C2` [Compound 4], the IC50 was 1000 to 10000 nM in assay [1] and below 1000 nM in assay [2].

For `CC(C)(C(=O)N[C@H]1[C@@H]2CC3C[C@H]1C[C@](O)(C3)C2)[S+]([O-])c1ccc(Cl)cc1` (stereo partly shown) [Compound 5], the IC50 in assay [2] was below 1000 nM.

With `CN1CC(C(=O)N[C@@H]2[C@@H]3CC4C[C@H]2C[C@@](O)(C4)C3)Oc2ccccc21` (stereo partly shown) [Compound 6], the values for the IC50 in assay [1] and in assay [2] were above 10000 nM and below 1000 nM, respectively.

In the case of `Cc1c(C(=O)N[C@H]2[C@@H]3CC4C[C@H]2C[C@](O)(C4)C3)oc2ccccc12` [Compound 7], the results for the IC50 in assay [1] and in assay [2] were above 10000 nM and below 1000 nM, respectively.

With `O=C(N[C@H]1[C@@H]2CC3C[C@H]1C[C@](O)(C3)C2)C1COc2ccccc2O1` (stereo partly shown) [Compound 8], the IC50 was 1000 to 10000 nM in assay [1] and below 1000 nM in assay [2].

Turning to `Cc1cccc(OC(C)(C)C(=O)N[C@H]2[C@@H]3CC4C[C@H]2C[C@](O)(C4)C3)c1` [Compound 10], the IC50 in assay [1] is 1000 to 10000 nM; in assay [2], below 1000 nM.

As to `Cc1ccc2c(c1)NCC(C(=O)N[C@H]1[C@@H]3CC4C[C@H]1C[C@](O)(C4)C3)O2` (stereo partly shown) [Compound 11], the figures for the IC50 in assay [1] and in assay [2] were 1000 to 10000 nM and below 1000 nM, respectively.

For `Cc1ccccc1OC(C)(C)C(=O)N[C@H]1[C@@H]2CC3C[C@H]1C[C@](O)(C3)C2` [Compound 12], the IC50 in assay [1] and in assay [2] was below 1000 nM throughout.

With `Cc1ccc(OC(C)(C)C(=O)N[C@H]2[C@@H]3CC4C[C@H]2C[C@](O)(C4)C3)cc1` [Compound 13], the IC50 in assay [1] and in assay [2] was below 1000 nM each time.

Regarding `COc1cccc(OC(C)(C)C(=O)N[C@H]2[C@@H]3CC4C[C@H]2C[C@](O)(C4)C3)c1` [Compound 14], the IC50 in assay [1] and in assay [2] was below 1000 nM in each case.

In the case of `CC(C)(Oc1ccccc1Br)C(=O)N[C@H]1[C@@H]2CC3C[C@H]1C[C@](O)(C3)C2` [Compound 15], the IC50 in assay [1] and in assay [2] was below 1000 nM each time.

Consider `Cc1cc(C)cc(OC(C)(C)C(=O)N[C@H]2[C@@H]3CC4C[C@H]2C[C@](O)(C4)C3)c1` [Compound 16], for which the IC50 in assay [1] and in assay [2] was below 1000 nM each time.

As to `COc1cc(OC)cc(OC(C)(C)C(=O)N[C@H]2[C@@H]3CC4C[C@H]2C[C@](O)(C4)C3)c1` [Compound 17], the IC50 was 1000 to 10000 nM in assay [1] and below 1000 nM in assay [2].

Turning to `CN(C)c1cccc(OC(C)(C)C(=O)N[C@H]2[C@@H]3CC4C[C@H]2C[C@](O)(C4)C3)c1` [Compound 18], the IC50 in assay [1] and in assay [2] was below 1000 nM each time.

Turning to `CC(=O)Nc1cccc(OC(C)(C)C(=O)N[C@H]2[C@@H]3CC4C[C@H]2C[C@](O)(C4)C3)c1` [Compound 19], the IC50 in assay [1] and in assay [2] was below 1000 nM each time.

Turning to `CC(C)(Oc1cccc(C(F)(F)F)c1)C(=O)N[C@H]1[C@@H]2CC3C[C@H]1C[C@](O)(C3)C2` [Compound 20], the IC50 in assay [1] and in assay [2] was below 1000 nM each time.

`O=C(N[C@H]1[C@@H]2CC3C[C@H]1C[C@](O)(C3)C2)[C@H]1CCc2cc(F)ccc2O1` [Compound 21]: the IC50 in assay [1] and in assay [2] was below 1000 nM throughout.

On to `O=C(N[C@H]1[C@@H]2CC3C[C@H]1C[C@](O)(C3)C2)[C@@H]1CCc2cc(F)ccc2O1` [Compound 22], for which the results for the IC50 in assay [1] and in assay [2] were 1000 to 10000 nM and below 1000 nM, respectively.

Consider `O=C(N[C@H]1[C@@H]2CC3C[C@H]1C[C@](O)(C3)C2)c1cc2ccccc2o1` [Compound 23], for which the figures for the IC50 in assay [1] and in assay [2] were above 10000 nM and below 1000 nM, respectively.

Turning to `O=C(N[C@H]1[C@@H]2CC3C[C@H]1C[C@](O)(C3)C2)C1Cc2ccccc2O1` (stereo partly shown) [Compound 24], the results for the IC50 in assay [1] and in assay [2] were 1000 to 10000 nM and below 1000 nM, respectively.

With `O=C(N[C@H]1[C@@H]2CC3C[C@H]1C[C@](O)(C3)C2)C1CCc2ccccc2O1` (stereo partly shown) [Compound 26], the IC50 in assay [1] and in assay [2] was below 1000 nM each time.

For the compound `Cc1ccc(NC(C)(C)C(=O)N[C@H]2[C@@H]3CC4C[C@H]2C[C@](O)(C4)C3)cc1` [Compound 27], the IC50 was above 10000 nM in assay [1] and below 1000 nM in assay [2].

For the compound `Cc1c(C)c2c(c(C)c1O)CCC(C)(C(=O)N[C@H]1[C@@H]3CC4C[C@H]1C[C@](O)(C4)C3)O2` (stereo partly shown) [Compound 28], the IC50 in assay [1] and in assay [2] was below 1000 nM in each case.

For `CC(=O)N[C@@]12CC3C[C@H](C1)[C@H](NC(=O)C(C)(C)Oc1ccc(Cl)cc1C)[C@@H](C3)C2` [Compound 29], the IC50 in assay [1] and in assay [2] was below 1000 nM throughout.

Take `Cc1cc(Cl)ccc1OC(C)(C)C(=O)N[C@H]1[C@@H]2CC3C[C@H]1C[C@](NC(=O)NC(C)(C)C)(C3)C2` [Compound 71]: the IC50 in assay [2] fell in the range of 1000 to 10000 nM.

`COC(=O)c1cccc(NC(C)(C)C(=O)N[C@H]2[C@@H]3CC4C[C@H]2C[C@](F)(C4)C3)c1` [Compound 78]: in assay [2], the IC50 is below 1000 nM.

As for `COC(=O)c1ccc(NC(C)(C)C(=O)N[C@H]2[C@@H]3CC4C[C@H]2C[C@](O)(C4)C3)cc1` [Compound 79], the IC50 in assay [2] is below 1000 nM.

For `CC(C)(Nc1cccc(C(=O)O)c1)C(=O)N[C@H]1[C@@H]2CC3C[C@H]1C[C@](F)(C3)C2` [Compound 82], the IC50 in assay [2] was in the range of 1000 to 10000 nM.

In the case of `CC(C)(Nc1cccc(C(=O)O)c1)C(=O)N[C@H]1[C@@H]2CC3C[C@H]1C[C@](O)(C3)C2` [Compound 86], the IC50 in assay [2] is 1000 to 10000 nM.

`COC(=O)c1ccc(NC(C)(C)C(=O)NC2[C@@H]3CC4C[C@H]2C[C@](F)(C4)C3)cc1` (stereo partly shown) [Compound 96]: the IC50 in assay [2] fell in the range of 1000 to 10000 nM.

As to `CC(=O)N[C@@]12CC3C[C@H](C1)C(NC(=O)C(C)(C)Nc1cccc(C(=O)O)c1)[C@@H](C3)C2` (stereo partly shown) [Compound 97], the IC50 in assay [2] was above 10000 nM.

Consider `CC(C)(Oc1cccc(Br)c1)C(=O)N[C@H]1[C@@H]2CC3C[C@H]1C[C@](NC(=O)OCCCl)(C3)C2` [Compound 98], for which the IC50 in assay [2] is below 1000 nM.

As to `CC(C)(Oc1ccccc1Cl)C(=O)N[C@H]1[C@@H]2CC3C[C@H]1C[C@](N)(C3)C2` [Compound 99], the IC50 in assay [2] was below 1000 nM.

`CC(C)(Oc1cccc(C(F)(F)F)c1Cl)C(=O)N[C@H]1[C@@H]2CC3C[C@H]1C[C@](N)(C3)C2` [Compound 100]: the IC50 in assay [2] was below 1000 nM.

Regarding `CC(C)(Oc1cc(C(F)(F)F)ccc1Cl)C(=O)N[C@H]1[C@@H]2CC3C[C@H]1C[C@](N)(C3)C2` [Compound 101], the IC50 in assay [2] is below 1000 nM.

For the compound `CC(C)(Oc1ccccc1C(F)(F)F)C(=O)N[C@H]1[C@@H]2CC3C[C@H]1C[C@](N)(C3)C2` [Compound 102], the IC50 in assay [2] was below 1000 nM.

In the case of `Cc1ccccc1OC(C)(C)C(=O)N[C@H]1[C@@H]2CC3C[C@H]1C[C@](N)(C3)C2` [Compound 103], the IC50 in assay [2] is below 1000 nM.

For the compound `COc1cc(F)ccc1OC(C)(C)C(=O)N[C@H]1[C@@H]2CC3C[C@H]1C[C@](N)(C3)C2` [Compound 105], in assay [2], the IC50 was below 1000 nM.
